Where “and” joins values, the source holds several entries; their conditions need not be identical. Equal entries are not always repeated. Where two headings read alike, the source gives them in different places.
Legend:
human OAT3 [1] = molecular target: T1, human OAT3 (Homo sapiens, UniProt Q8TCC7); assay: Inhibition of OAT3-mediated enalaprilat uptake in OAT3-transfected HEK293 cells
T1 sequence (Q8TCC7 1-542): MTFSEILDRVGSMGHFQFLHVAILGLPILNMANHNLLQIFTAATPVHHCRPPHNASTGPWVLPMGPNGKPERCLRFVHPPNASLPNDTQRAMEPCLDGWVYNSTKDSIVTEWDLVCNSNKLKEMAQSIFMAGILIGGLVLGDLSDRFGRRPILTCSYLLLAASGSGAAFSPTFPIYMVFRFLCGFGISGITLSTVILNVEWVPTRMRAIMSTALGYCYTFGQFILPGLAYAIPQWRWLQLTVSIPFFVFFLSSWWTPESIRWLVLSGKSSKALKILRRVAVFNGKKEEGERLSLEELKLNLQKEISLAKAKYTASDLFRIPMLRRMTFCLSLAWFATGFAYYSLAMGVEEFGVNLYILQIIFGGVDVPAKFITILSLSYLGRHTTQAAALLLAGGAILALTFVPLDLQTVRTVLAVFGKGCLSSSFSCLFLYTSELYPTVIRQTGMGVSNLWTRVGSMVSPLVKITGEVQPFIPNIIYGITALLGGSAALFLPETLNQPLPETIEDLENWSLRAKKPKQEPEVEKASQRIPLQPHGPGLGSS
Experimental: Because the present study examined a number of compounds with structural diversity, a 30 min preincubation was carried out for all compounds in order to eliminate inconsistencies. […] OAT3-transfected HEK293 cells or mock cells were washed thrice with pre-warmed HBSS and preincubated with HBSS containing different concentrations of inhibitors for 30 min at 37°C.
For sample preparation before analysis, 100 μl acetonitrile containing 500 nM tolbutamide (internal standard, IS) was added as a protein-precipitating agent to 50-μl cell samples. All samples were vortexed for 2 min and centrifuged at 13,000 rpm for 10 min. Ten microliters of the supernatants were transferred into injection vials for concentration determination.
The LC-MS/MS system consisted of an API 4000 Qtrap mass spectrometer equipped with a turbo-V ionization source (Applied Biosystems, Foster City, CA, USA), two LC-20AD pumps with a CBM-20A controller, a DGU-20A solvent degasser, and a SIL-20A autosampler (Shimadzu, Columbia, MD, USA). A reverse phase C18 column (50×2.1 mm, 5 µm particle size; Agela, China) and a gradient elution at 0.3 ml/min were employed for chromatographic separation. […] Analyst 1.6.3 (AB SCIEX, USA) was used to collect and process the data.
where I was the inhibitor concentration.

human OAT1 = molecular target: T2, human OAT1 (Homo sapiens, UniProt Q4U2R8); assay: Enalaprilat uptake kinetics in HEK293 cells overexpressing human OAT1; assay type: in vitro ADME; conditions: OAT1-transfected HEK293, net uptake (mock subtracted), enalaprilat 0-500 μM, 5 min incubation
T2 construct: expressed in transfected cells; gift of Prof; Dafang Zhong, Shanghai Institute of Materia Medica
T2 sequence (Q4U2R8 1-563): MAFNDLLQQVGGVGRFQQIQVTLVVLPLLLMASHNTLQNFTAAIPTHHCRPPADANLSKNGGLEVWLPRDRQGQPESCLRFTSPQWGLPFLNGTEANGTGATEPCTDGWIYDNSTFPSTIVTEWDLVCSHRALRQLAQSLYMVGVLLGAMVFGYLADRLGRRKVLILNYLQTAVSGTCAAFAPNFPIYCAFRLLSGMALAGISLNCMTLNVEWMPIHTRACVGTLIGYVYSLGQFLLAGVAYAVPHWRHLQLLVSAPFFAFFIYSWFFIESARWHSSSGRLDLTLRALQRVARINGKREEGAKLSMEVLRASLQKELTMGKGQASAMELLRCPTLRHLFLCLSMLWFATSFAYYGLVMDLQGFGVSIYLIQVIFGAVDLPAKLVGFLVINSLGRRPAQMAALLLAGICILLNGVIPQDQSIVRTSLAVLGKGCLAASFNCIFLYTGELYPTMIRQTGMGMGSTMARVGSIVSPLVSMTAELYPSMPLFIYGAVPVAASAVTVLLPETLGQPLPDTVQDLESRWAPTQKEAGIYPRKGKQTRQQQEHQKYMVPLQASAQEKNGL
Experimental: (§1) Human embryonic kidney 293 (HEK293) cells stably overexpressing human OAT1, OAT3, organic cation transporter 2 (OCT2), OATP1B1, OATP1B3 or OATP2B1 as well as empty vectors were generously provided by Professor Dafang Zhong, Shanghai Institute of Materia Medica, Chinese Academy of Sciences (Shanghai, China). Respective transport activities had been validated using specific probe substrates ([Zhong et al., 2014]). All cells were grown in DMEM supplemented with 10% FBS, at 37°C with 5% CO2 and 95% humidity.
(§2) Cells were seeded in 24-well plates at a density of 200,000 cells per well and cultured in high glucose DMEM for 48 h. On the third day and prior to the start of the uptake experiment, cells were washed thrice with pre-warmed HBSS and then incubated with HBSS for 30 min at 37°C. […] Incubations were terminated 5 min after the addition of substrate by washing with ice-cold HBSS. Cells were immediately lysed with 200 μl ultrapure water by repeated freezing and thawing up to three times. Intracellular drug concentrations were determined using a liquid chromatography - tandem mass spectrometry (LC-MS/MS) method. Cellular protein levels were estimated using the Bicinchoninine acid assay per manufacturer’s instruction (Takara, Japan).
(§3) Kinetic parameters of transporter-mediated uptake were estimated by nonlinear regression analysis using GraphPad Prism 5.01 (La Jolla, CA, USA). […]

human OATP2B1 = molecular target: T3, human OATP2B1 (Homo sapiens, UniProt O94956); assay: Enalaprilat uptake kinetics in HEK293 cells overexpressing human OATP2B1; assay type: in vitro ADME; conditions: OATP2B1-transfected HEK293, net uptake (mock subtracted), enalaprilat 0-500 μM, 5 min incubation
T3 construct: expressed in transfected cells; gift of Prof; Dafang Zhong, Shanghai Institute of Materia Medica
T3 sequence (O94956 1-709): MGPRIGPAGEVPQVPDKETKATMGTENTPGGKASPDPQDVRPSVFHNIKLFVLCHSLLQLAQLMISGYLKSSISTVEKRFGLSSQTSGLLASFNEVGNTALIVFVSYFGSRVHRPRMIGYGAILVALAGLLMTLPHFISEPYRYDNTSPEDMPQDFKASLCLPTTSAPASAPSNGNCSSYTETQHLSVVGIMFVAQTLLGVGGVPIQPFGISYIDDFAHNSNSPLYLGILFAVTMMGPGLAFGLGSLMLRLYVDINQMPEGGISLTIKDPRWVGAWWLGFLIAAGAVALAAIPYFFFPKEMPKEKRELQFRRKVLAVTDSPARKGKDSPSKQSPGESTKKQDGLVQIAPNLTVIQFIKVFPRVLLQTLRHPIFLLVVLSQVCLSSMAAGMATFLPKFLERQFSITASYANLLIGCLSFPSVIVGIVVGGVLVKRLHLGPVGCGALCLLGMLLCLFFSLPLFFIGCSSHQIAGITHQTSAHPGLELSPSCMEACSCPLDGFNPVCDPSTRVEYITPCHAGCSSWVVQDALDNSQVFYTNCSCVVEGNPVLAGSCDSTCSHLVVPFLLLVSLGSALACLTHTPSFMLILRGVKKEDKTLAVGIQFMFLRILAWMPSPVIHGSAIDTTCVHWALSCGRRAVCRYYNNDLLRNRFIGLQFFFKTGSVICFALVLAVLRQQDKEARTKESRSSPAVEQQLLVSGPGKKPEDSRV
Experimental: as §1, §2, §3

[2] = cited from earlier work; for Excreted into the urine, % of the dose: after oral administration of enalapril, MacFadyen et al., 1993
human OAT3 [3] = molecular target: T1, human OAT3; assay: Enalaprilat uptake kinetics in HEK293 cells overexpressing human OAT3; assay type: in vitro ADME; design: expressed in transfected cells; gift of Prof; Dafang Zhong, Shanghai Institute of Materia Medica
Experimental: as §1, §2, §3

OAT3 = conditions: cited from earlier work
OAT1 = test system: OAT1; design: method as in Tan et al., 2017; conditions: ref Tan et al., 2017; cited from earlier work
OAT4 = test system: OAT4; design: method as in Tan et al., 2017; conditions: ref Tan et al., 2017; cited from earlier work
[4] = IC50, inhibition of enalaprilat uptake by selected drugs, HEK293-OAT3, enalaprilat 30 µM, 30 min preincubation, mean ± sd of three incubations

IC50 (human OAT3 [1]) [nM] | IC50 (human OAT3 [1]; [4]) | SMILES | further results
– | 950 ± 370 nM | O=C1C(CC[S+]([O-])c2ccccc2)C(=O)N(c2ccccc2)N1c1ccccc1 (centres unmarked) [Sulfinpyrazone] | –
660 ± 110 | – | O=c1cc(-c2ccc(O)c(O)c2)oc2cc(O)cc(O)c12 [Luteolin] | –
– | 3500 ± 510 nM | Cc1ccc(C)c(OCCCC(C)(C)C(=O)O)c1 [Gemfibrozil] | –
– | – | C[C@H](N[C@@H](CCc1ccccc1)C(=O)O)C(=O)N1CCC[C@H]1C(=O)O [Enalaprilat] | Vmax (human OAT1): 42.4 ± 1.3 nmol/min/mg protein; Vmax (human OATP2B1): 20.1 ± 2.7 nmol/min/mg protein; Excreted into the urine, % of the dose ([2]; ref Ulm et al., 1982): 43 % of the dose; Vmax (human OAT3 [3]; OAT3-transfected HEK293, net uptake (mock subtracted), enalaprilat 0-500 μM, 5 min incubation): 87.4 ± 1.1 nmol/min/mg protein
– | 370 ± 40 nM | CCC1=C(C)CN(C(=O)NCCc2ccc(S(=O)(=O)NC(=O)N[C@H]3CC[C@H](C)CC3)cc2)C1=O [Glimepiride] | –
– | 800 nM and < 1000 nM | O=C(O)CSc1nnc(Br)n1-c1ccc(C2CC2)c2ccccc12 [Lesinurad] | –
– | – | O=S(=O)(O)CCS [mesna] | Km (OAT3; read-out: Km as OAT3 substrate, ref Cutler et al., 2012): 390 µM
1220 ± 180 | – | CC(C)=CCc1c(-c2ccc(O)cc2O)oc2c(CC=C(C)C)c(O)cc(O)c2c1=O [Mulberrin] | –
44 ± 13 | – | O=c1cc(-c2ccccc2)oc2cc(O)cc(O)c12 [Chrysin] | –
88 ± 14 | – | O=c1c(O)c(-c2ccc(O)cc2)oc2cc(O)cc(O)c12 [Kaempferol] | –
– | – | NNC(=O)c1ccncc1 [isoniazid] | Km (OAT3; read-out: Km as OAT3 substrate, ref Parvez et al., 2018): 234 µM
240 ± 40 | – | COc1c(O)cc(O)c2c(=O)cc(-c3ccccc3)oc12 [Wogonin] | –
– | 860 ± 220 nM | CCCc1nc2c(C)cc(-c3nc4ccccc4n3C)cc2n1Cc1ccc(-c2ccccc2C(=O)O)cc1 [Telmisartan] | –
– | – | C=C1CC23CCC4C(C)(C(=O)OC5OC(C(=O)O)C(O)C(O)C5O)CCCC4(C)C2CCC1(O)C3 (centres unmarked) [steviol acyl glucuronide] | Km (OAT3): 368 µM
750 ± 370 | – | O=c1c(O)c(-c2ccc(O)c(O)c2)oc2cc(O)cc(O)c12 [Quercetin] | –
– | – | CCOC(=O)[C@H](CCc1ccccc1)N[C@@H](C)C(=O)N1CCC[C@H]1C(=O)O [Enalapril] | Plasma exposure, fold lower than that of enalaprilat ([2]; after enalapril administration, ref Li et al., 2017): about 4.5 fold; Excreted into the urine, % of the dose ([2]; ref Ulm et al., 1982): 18 % of the dose; Fraction of the dose converted to enalaprilat ([2]; oral enalapril, dose 10 mg, man, ref Ulm et al., 1982): about 40%; Transport by OAT3 (substrate status) (human OAT3 [3]; OAT3-transfected HEK293, Supplementary Figure 1): could also be transported by OAT3
3820 ± 1600 | – | O=c1c(O)c(-c2ccc(O)c(O)c2)oc2cc(O)ccc12 [Fisetin] | –
220 ± 120 | – | COc1c(O)cc2oc(-c3ccccc3)cc(=O)c2c1O [Oroxylin A] | –
7020 ± 3370 | – | O=C1c2c(O)cc(O)cc2OC(c2ccc(O)c(O)c2)C1O (centres unmarked) [Taxifolin] | –
– | 2100 ± 310 nM | CCOc1cc(CC(=O)N[C@@H](CC(C)C)c2ccccc2N2CCCCC2)ccc1C(=O)O [Repaglinide] | –
330 ± 90 | – | O=c1cc(-c2ccc(O)cc2)oc2cc(O)cc(O)c12 [Apigenin] | –
– | 900 ± 90 nM | CCCCC(=O)N(Cc1ccc(-c2ccccc2-c2nnn[nH]2)cc1)[C@H](C(=O)O)C(C)C [Valsartan] | –
11700 ± 6290 | – | COc1c(O[C@@H]2O[C@H](C(=O)O)[C@@H](O)[C@H](O)[C@H]2O)cc(O)c2c(=O)cc(-c3ccccc3)oc12 [Wogonoside] | –
– | 140 nM and < 1000 nM | CCc1oc2ccccc2c1C(=O)c1cc(Br)c(O)c(Br)c1 [Benzbromarone] | –
– | 410 ± 50 nM | Cc1nc(-c2ccc(OCC(C)C)c(C#N)c2)sc1C(=O)O [Febuxostat] | –

SMILES | IC50 (human OAT3 [1]) [nM] | IC50 (human OAT3 [1]; [4]) | further results
O=c1c(O)c(-c2ccccc2)oc2cc(O)cc(O)c12 [Galangin] | 30 ± 26 | – | –
O=c1c(O)c(-c2cc(O)c(O)c(O)c2)oc2cc(O)cc(O)c12 [Myricetin] | 22600 ± 6860 | – | –
O=c1c(-c2ccc(O)cc2)coc2cc(O)ccc12 [Daidzein] | 5800 ± 3960 | – | –
O=c1cc(-c2ccc(O)cc2)oc2cc(O[C@@H]3O[C@H](CO)[C@@H](O)[C@H](O)[C@H]3O)cc(O)c12 [Apigetrin] | 7800 ± 4030 | – | –
O=C1C[C@@H](c2ccc(O)c(O)c2)Oc2cc(O)cc(O)c21 [Eriodictyol] | 1480 ± 600 | – | –
O=c1c(O[C@@H]2O[C@H](CO)[C@@H](O)[C@H](O)[C@H]2O)c(-c2ccc(O)c(O)c2)oc2cc(O)cc(O)c12 [Isoquercetin] | 11700 ± 2060 | – | –
CC(C)(Sc1ccncc1-c1ccc(C#N)c2ccccc12)C(=O)O [Verinurad] | – | 800 nM and < 1000 nM | Affinity for OAT1, fold lower as compared to URAT1 (OAT1): approximately 200 fold; Affinity for OAT4, fold lower as compared to URAT1 (OAT4): approximately 200 fold
O=c1c(O)c(-c2ccc(O)c(O)c2)oc2c(O)c(O)cc(O)c12 [Gossypetin] | 710 ± 80 | – | –
